# Patent publication US20100041045A1, “NUCLEIC ACID FLUORESCENT STAINS” (SIGMA-ALDRICH CO., priority 2007, published 2010)
# Like-named read-outs stand apart in the source and are kept apart here.
# Legend:
# PstI-digested lambda DNA = assay: Post electrophoretic staining of DNA in agarose gels (Example 2); details: for detection of stained DNA at longer wavelengths: laser scanner, 532/580 filter set
# Procedure: The absorption and emission spectra of the unsymmetrical monomethincyanine dyes of the invention are shifted to longer wavelengths relative to those of commonly used nucleic acid stains. […] Invitrogen Corp.) and imaged using different detection devices. PstI-digested lambda DNA (Cat. No. D1793; Sigma-Aldrich, St. Louis, Mo.) was resolved on agarose gels in the presence of TBE buffer, pH 8.3. Lanes were loaded with a total of either 500 ng or 100 ng of DNA (the loading buffer contained 0.05% bromophenol blue (w/v), 40% sucrose (w/v), 0.5% SDS (w/v), and 0.1 M EDTA, pH 8). The gels were run at 90 V for about 90 min. After electrophoresis, the gels were submerged in a solution of TBE buffer comprising 2 μM of 6 (SL-2791) or SG1 for 1 hr. After a quick rinse, the gels were imaged with 1) a 300 nm UV transilluminator (Cat. No. T2202; Sigma-Aldrich) or a 450 nm (blue light) transilluminator (Dark Reader™; Clare Chemical Research, Denver, Colo.) and a CCD camera imaging system (Gel Logic 100; Kodak Imaging, Rochester, N.Y.) equipped with a 535 nm or a 590 nm emission filter and 2) a laser scanner fluorescent image analyzer system (FLA-300; Fujifilm, Japan) equipped with excitation/emission filter sets of 473/520 nm or 532/580 nm.
# [1] = tested on: HindIII-digested lambda DNA; assay: Digestion of stained DNA (Example 7); format: biochemical; details: 6557 bp band eluted from gel, restriction enzyme
# Procedure: To determine whether the binding between DNA and an unsymmetrical monomethincyanine dye was strong enough to inhibit the digestion of the DNA, HindIII-digested lambda DNA (1 μg/lane) was resolved on an agarose gel (0.8%), as described above. The DNA was stained either during or after electrophoresis. The band-of-interest (e.g., the 6557 bp band) was excised from the gel using a blue light transilluminator [see FIG. 6A, the DNA was stained with 6 (SL-2791)]. DNA was eluted from the piece of agarose using a spin column (GenElute Agarose Spin Column, Cat. No. 5-6500; Sigma-Aldrich). The collected DNA was digested with an appropriate restriction enzyme, and the reaction products were analyzed on a new agarose gel (1.2%) using compound 9 (SL-2845). The left lane of FIG. 6B presents the undigested DNA and the right lane of FIG. 6B presents the digested products.
# [2] = tested on: HindIII-digested lambda DNA; assay: DNA gel staining, comparison of compounds 7 and 8 (Example 4); details: 200 and 20 ng/lane DNA
# Procedure: The brightness, sensitivity, and spectral properties of two of the new unsymmetrical monomethincyanine dyes, compound 7 (SL-2833) and compound 8 (SL-2834), were compared by staining gels containing 200 ng/lane and 20 ng/lane of HindIII-digested lambda DNA. The gels were processed and imaged as described above in Example 2.
# [3] = tested on: HindIII-digested lambda DNA; assay: Prestaining of DNA during electrophoresis (Example 3)
# Procedure: The ability of another of the new unsymmetrical monomethincyanine dyes, i.e., compound 7 (SL-2833), to stain DNA during electrophoresis (i.e., “prestain”) was compared to that of ethidium bromide (EtBr). For this, 1 μM of 7 (SL-2833) or EtBr was added to the heated agarose before the gel was poured. The gels were loaded with 200 ng/lane and 20 ng/lane of HindIII-digested lambda DNA (Cat. No. D9780; Sigma-Aldrich) and run at 90 V for about 90 min. After electrophoresis, the gels were imaged as described above in Example 2.
# DNA polymerase [4] = assay: Inhibition of DNA polymerase activity in qPCR; format: biochemical; details: concentrations greater than 0.5 μM
# [5] = tested on: HindIII-digested lambda DNA and 0.2-10 kb RNA markers; assay: Staining of DNA and RNA in gels (Example 5); details: 200 ng/lane DNA, 1 μg/lane RNA; laser scanner 532/580 nm
# Procedure: Gels were loaded with 200 ng/lane of HindIII-digested lambda DNA and 1 μg/lane of 0.2-10 kb RNA markers (Cat. No. R1386; Sigma-Aldrich). The RNA loading buffer contained 62.5% formamide (v/v), 1.14 M formaldehyde, 0.2 mg/ml bromophenol blue, 0.2 mg/ml xylene cyanol, and 1.25×MOPS-EDTA-sodium acetate buffer. After electrophoresis the gels were stained with compound 9 (SL-2845), SG1, or the RNA-specific stain SYBR® Green 2 (SG2; Invitrogen) and imaged as described above in Example 2.
# dsDNA = assay: Binding specificity and fluorescence with dsDNA versus ssDNA
# [6] = tested on: human alu-consnesus sequence; assay: Real-time qPCR (Example 9); format: biochemical
# Procedure: PCR was performed on human genomic DNA obtained from 0.16 million human peripheral blood leukocytes by direct lysis in a volume of 1 ml as described by Christopherson et al, PCR-Based Assay To Quantify Human Immunodeficiency Virus Type 1 DNA In Peripheral Blood Mononuclear Cells, 2000, J Clin Microbiol., pp. 630-634, Vol. 38. […] Additionally, a non-template control containing deionised water as sample was used. Two μl per sample were then used for real-time PCR as follows: PCR reactions were run in JumpStart™ ReadyMix™ (Sigma Aldrich, order number p2893), containing salt, buffer, Taq-DNA polymerase and deoxynucleotidetriphosphates in a final volume of 32 μl. PCR primers were added to a final concentration of 1 μM. To obtain optimal performance in real time PCR, the PCR mix was supplemented with additional MgCL2 to a final concentration of 3 mM. The DNA binding dye Nancy-520 was added to a final concentration of 200 nM. PCR primers mf39 (5′-[…]-3′) and mf40 (5′-[…]-3′) were used at a final concentration of 1 μM. These primers amplify a 133 base pair fragment of the human alu-consnesus sequence (see Clayerie et al, Alu alert, 1994, Nature, pp. 752, Vol. 371.) (available from the Genbank database: http://www.ncbi.nlm.nih.gov/Genbank/, entry nr: HSU14574). Because these repetitive sequences are highly abundant in the human genome, the PCR for alu sequences can be used to detect minute amounts of human DNA.
# Real-time PCR was performed in a real-time PCR thermocycler (IQ-5, Biorad, Basel Switzerland) using the following cycling profile: Initial denaturation 94° C. 20 sec, followed for 40 cycles (94° C. 5 sec, 60° C. 5 sec, 72° C. 20 sec, 60° C. 60 sec with real-time monitoring). After cycling a melting curve analysis ranging from 55° C.-92° C. was performed with temperature increments of 0.5° C. and measurement intervals of 30 sec. Five different optical filter-sets were used for real-time PCR monitoring and melting-curve analysis according to the suppliers instructions (see table 1).
# Data (FIG. 9A, 9C, 9D) were analyzed using the IQ5 software (version 2.0) or by linear regression analysis (FIG. 9B) using the statistical software GraphPad Prism version 5.01 (GraphPad Software, Inc., La Jolla, Calif.)
# The first number, 485, indicates the center of the wavelength of light. The second number, 20 indicates the total breadth of wavelengths of light that can pass through it.
# DNA polymerase [7] = details: high concentrations (>0.5 μM); cited from earlier work
# [8] = tested on: HindIII-digested lambda DNA; assay: Determination of the lower limit of detection (Example 6); details: 300 nm UV transilluminator, CCD camera, 590 nm emission filter
# Procedure: HindIII-digested lambda DNA (200 ng/lane and 20 ng/lane) was resolved on agarose gels, as described above. EtBr was added to one gel such that the DNA was stained during electrophoresis; the other gels were stained with compound 6 (SL-2791), 7 (SL-2833), 8 (SL-2834), 9 (SL-2845), or SG1 after electrophoresis. Gels were imaged using a 300 nm UV transilluminator and a CCD camera with a 590 nm emission filter.
# [9] = 1 μM in gel, UV transilluminator
structure (smiles),measurement,setting,value
"CN1C(c2ccccc2)=C/C(=C\c2sc3ccccc3[n+]2CCCO)c2ccccc21 [Compound 6, 1-Methyl-4-[(2,3-dihydro-3-(3-hydroxypropyl)benzo-1,3-thiazol-2-yl)-methyliden]-2-phenyl-quinolinium perchlorate]",brightness of stained DNA bands compared with SG1,"PstI-digested lambda DNA; 2 μM stain in TBE for 1 hr, under each detection condition",much brighter
same,detection of stained DNA at longer wavelengths,PstI-digested lambda DNA,could be detected at longer wavelengths
same,enzymatic digestion of stained DNA,[1],may be enzymatically digested
Cc1ccc2c(c1)/C(=C/c1sc3ccccc3[n+]1CCCO)C=C(c1ccccc1)N2C [Compound 7],detection using the laser-based long wavelength imaging system,[2],clearly detected
same,fluorescence with blue light transilluminator and 590 nm filter as compared to UV transilluminator,[2],reduced fluorescence
same,background fluorescence at top of gels compared with EtBr,[3]; [9],lower background fluorescence
same,fluorescence of stained DNA bands compared with EtBr,[3]; [9],increased fluorescence
same,imaging of stained DNA at longer wavelengths,"[3]; laser scanner 473/520 and 532/580 nm filter sets, low levels of DNA = 20 ng/lane",readily imaged
Cc1ccc2c(c1)/C(=C/c1sc3ccccc3[n+]1CCO)C=C(c1ccccc1)N2C [Compound 8],detection using the laser-based long wavelength imaging system,[2],clearly detected
same,fluorescence with blue light transilluminator and 590 nm filter as compared to UV transilluminator,[2],reduced fluorescence
CN1C(c2ccccc2)=C/C(=C\c2sc3ccccc3[n+]2CCCCO)c2ccccc21 [Compound 9],inhibition of DNA polymerase activity,DNA polymerase [4],does not inhibit DNA polymerase activity
same,staining intensity of DNA versus RNA,[5],stained DNA more intensely than RNA
same,binding specificity for dsDNA,dsDNA,high binding specificity
same,fluorescence in the presence of dsDNA,dsDNA,strong fluorescence signal
same,fluorescence in the presence of ssDNA or in the absence of nucleic acids,dsDNA,only weak fluorescence
same,robustness in DNA melt curve analysis,[6]; 55° C.-92° C. following PCR cycling,sufficiently robust
same,thermostability,[6]; PCR temperature cycles,high thermostability
same,Performance of PCR in measuring Nancy-520 fluorescence,"[6]; filter-set CY3, 545/30X 585/20M",Filter set unsuitable (data not shown)
same,Performance of PCR in measuring Nancy-520 fluorescence,"[6]; filter-set CY5, 630/30X 685/30M",Filter set unsuitable (data not shown)
same,Performance of PCR in measuring Nancy-520 fluorescence,"[6]; filter-set FAM, 485/20X 530/30M",Weak
same,Performance of PCR in measuring Nancy-520 fluorescence,"[6]; filter-set TXR, 575/30X 625/30M",Strong amplification signals (virtually
same,PCR signal amplitudes at lower dye concentrations,"[6]; lower concentrations than 2000 nm, data not shown",Suitable although slightly reduced signal amplitudes
CCCN(CCCN(C)C)c1cc(/C=C2/Sc3ccccc3N2C)c2ccccc2[n+]1-c1ccccc1 [SG1],inhibition of DNA polymerase activity,DNA polymerase [7],inhibit DNA polymerase activity
same,detection of stained DNA at longer wavelengths,PstI-digested lambda DNA,not visible
same,detection of stained DNA at longer wavelengths,PstI-digested lambda DNA; listed as SYBR® Green 1,not detected
same,"lower limit of detection, DNA per lane",[8],less than 1 ng
